Reference: PMC6364417, “Kinase inhibitor library screening identifies synergistic drug combinations effective in sensitive and resistant melanoma cells” (Journal of Experimental & Clinical Cancer Research : CR, 2019)

What was measured:
Assay in all cases: Kinase inhibitor library screening, PrestoBlue cell viability, 1 or 10 μM, 72 h
[1] = test system: IGR37-XP cells (Vemurafenib-resistant); conditions: IGR37 XP
[2] = test system: A375-GP cells (Dabrafenib-resistant); conditions: A375 GP
[3] = test system: A375-XP cells (Vemurafenib-resistant); conditions: A375 XP
[4] = test system: 501Mel-XP cells (Vemurafenib-resistant); conditions: 501Mel XP
[5] = test system: A375 cells (parental); conditions: A375 Parental
[6] = test system: 501Mel cells (parental); conditions: 501Mel Parental
Method in brief: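 Kinase inhibitors added at two fixed concentrations; 72 h exposure; PrestoBlue readout; % viability vs untreated; n ≥ 2 per line.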

[7] = test system: 501Mel-GP cells (Dabrafenib-resistant); conditions: 501Mel GP
[8] = test system: IGR37-GP cells (Dabrafenib-resistant); conditions: IGR37 GP
[9] = test system: IGR37 cells (parental); conditions: IGR37 Parental

COc1cc(OC)c(/C=C/S(=O)(=O)Cc2ccc(OC)c(NCC(=O)O)c2)c(OC)c1 [Rigosertib (ON-01910)]
Cell viability in kinase inhibitor library screening, IGR37 XP, 10μΜ ([1]; 10μΜ, 72 h): 35.5%
Cell viability in kinase inhibitor library screening, IGR37 XP, 1μΜ ([1]; 1μΜ, 72 h, in %): 55.9
Cell viability in kinase inhibitor library screening, A375 GP, 1μΜ ([2]; 1μΜ, 72 h): 19.7
Cell viability in kinase inhibitor library screening, A375 GP, 10μΜ ([2]; 10μΜ, 72 h): 16.9
Cell viability in kinase inhibitor library screening, A375 XP, 1μΜ ([3]; 1μΜ, 72 h): 18.3
Cell viability in kinase inhibitor library screening, A375 XP, 10μΜ ([3]; 10μΜ, 72 h): 9.8
Cell viability in kinase inhibitor library screening, 501Mel XP, 1μΜ ([4]; 1μΜ, 72 h, in %): 9.5
Cell viability in kinase inhibitor library screening, 501Mel XP, 10μΜ ([4]; 10μΜ, 72 h, in %): 14.7
Cell viability in kinase inhibitor library screening, A375 Parental, 10μΜ ([5]; 10μΜ, 72 h): 15.2
Cell viability in kinase inhibitor library screening, A375 Parental, 1μΜ ([5]; 1μΜ, 72 h): 18.2
Cell viability in kinase inhibitor library screening, 501Mel Parental, 1μΜ ([6]; 1μΜ, 72 h, in %): 20.3
Cell viability in kinase inhibitor library screening, 501Mel Parental, 10μΜ ([6]; 10μΜ, 72 h, in %): 26.0
Cell viability in kinase inhibitor library screening, 501Mel GP, 1μΜ ([7]; 1μΜ, 72 h, in %): 16.6
Cell viability in kinase inhibitor library screening, 501Mel GP, 10μΜ ([7]; 10μΜ, 72 h, in %): 20.3
Cell viability in kinase inhibitor library screening, IGR37 GP, 10μΜ ([8]; 10μΜ, 72 h): 61.1%
Cell viability in kinase inhibitor library screening, IGR37 GP, 1μΜ ([8]; 1μΜ, 72 h, in %): 62.5
Cell viability in kinase inhibitor library screening, IGR37 Parental, 1μΜ ([9]; 1μΜ, 72 h, in %): 11.0
Cell viability in kinase inhibitor library screening, IGR37 Parental, 10μΜ ([9]; 10μΜ, 72 h, in %): 15.4

COc1ccc2cc(-c3nc(-c4ccc([S+](C)[O-])cc4)[nH]c3-c3ccncc3)ccc2c1 (stereo not shown) [Tie2 kinase inhibitor]
cell viability (kinase inhibitor library screening) ([1]; 10μΜ, in %): 62.0
cell viability (kinase inhibitor library screening) ([2]; 1μΜ, in %): 96.7
cell viability (kinase inhibitor library screening) ([2]; 10μΜ, in %): 82.6
cell viability (kinase inhibitor library screening) ([3]; 10μΜ, in %): 97.1
cell viability (kinase inhibitor library screening) ([4]; 1μΜ, in %): 96.5
cell viability (kinase inhibitor library screening) ([4]; 10μΜ, in %): 64.5
cell viability (kinase inhibitor library screening) ([5]; 10μΜ, in %): 96.4
cell viability (kinase inhibitor library screening) ([6]; 1μΜ, in %): 96.1
cell viability (kinase inhibitor library screening) ([6]; 10μΜ, in %): 90.5
cell viability (kinase inhibitor library screening) ([7]; 1μΜ, in %): 107.0
cell viability (kinase inhibitor library screening) ([7]; 10μΜ, in %): 87.5
cell viability (kinase inhibitor library screening) ([8]; 1μΜ, in %): 94.1
cell viability (kinase inhibitor library screening) ([9]; 10μΜ, in %): 103.5

COc1cc2c(N3CCN(C(=O)Nc4ccc(OC(C)C)cc4)CC3)ncnc2cc1OCCCN1CCCCC1 [Tandutinib (MLN518)]
cell viability, IGR37 XP, 10μΜ ([1]; 10μΜ, 72 h): 43.4%
cell viability, IGR37 XP, 1μΜ ([1]; 1μΜ, 72 h, in %): 103.1
cell viability, A375 GP, 10μΜ ([2]; 10μΜ, 72 h, in %): 83.5
cell viability, A375 XP, 1μΜ ([3]; 1μΜ, 72 h, in %): 107.0
cell viability, 501Mel XP, 1μΜ ([4]; 1μΜ, 72 h, in %): 94.1
cell viability, 501Mel XP, 10μΜ ([4]; 10μΜ, 72 h, in %): 71.2
cell viability, A375 Parental, 1μΜ ([5]; 1μΜ, 72 h, in %): 106.1
cell viability, A375 Parental, 10μΜ ([5]; 10μΜ, 72 h, in %): 89.7
cell viability, 501Mel Parental, 10μΜ ([6]; 10μΜ, 72 h, in %): 95.2
cell viability, 501Mel GP, 1μΜ ([7]; 1μΜ, 72 h, in %): 103.5
cell viability, 501Mel GP, 10μΜ ([7]; 10μΜ, 72 h, in %): 85.5
cell viability, IGR37 GP, 10μΜ ([8]; 10μΜ, 72 h): 91.4%
cell viability, IGR37 GP, 1μΜ ([8]; 1μΜ, 72 h, in %): 95.6
cell viability, IGR37 Parental, 1μΜ ([9]; 1μΜ, 72 h, in %): 100.2
cell viability, IGR37 Parental, 10μΜ ([9]; 10μΜ, 72 h, in %): 98.5

CCOc1ccn(-c2ccc(F)cc2)c(=O)c1C(=O)Nc1ccc(Oc2ccnc(N)c2Cl)c(F)c1 [BMS 777607]
cell viability (kinase inhibitor library screening) ([1]; 1μΜ, 72 h): 91.2%
cell viability (kinase inhibitor library screening) ([1]; 10μΜ, 72 h): 46.6%
cell viability (kinase inhibitor library screening) ([2]; 10μΜ, 72 h): 45.4%
cell viability (kinase inhibitor library screening) ([3]; 10μΜ, 72 h): 66.5%
cell viability (kinase inhibitor library screening) ([4]; 1μΜ, 72 h): 72.2%
cell viability (kinase inhibitor library screening) ([4]; 10μΜ, 72 h): 37.4%
cell viability (kinase inhibitor library screening) ([5]; 10μΜ, 72 h): 42.4%
cell viability (kinase inhibitor library screening) ([5]; 1μΜ, 72 h): 99.9%
cell viability (kinase inhibitor library screening) ([6]; 1μΜ, 72 h): 88.2%
cell viability (kinase inhibitor library screening) ([6]; 10μΜ, 72 h): 68.4%
cell viability (kinase inhibitor library screening) ([7]; 10μΜ, 72 h): 53.2%
cell viability (kinase inhibitor library screening) ([8]; 1μΜ, 72 h): 87.2%
cell viability (kinase inhibitor library screening) ([8]; 10μΜ, 72 h): 82.2%
cell viability (kinase inhibitor library screening) ([9]; 1μΜ, 72 h): 97.6%
cell viability (kinase inhibitor library screening) ([9]; 10μΜ, 72 h): 81.6%
